# Test results: article doi:10.1101/2024.04.30.591959v2, “Structural insights into human propionyl-CoA carboxylase (PCC) and 3-methylcrotonyl-CoA carboxylase (MCC)” (biorxiv, 2024)
# Experiments:
# Experiment in all cases: cryo-EM structure, […] Å
# Assay type in all cases: binding
# human MCC holoenzyme = molecular target: T1, human MCC holoenzyme (Homo sapiens, UniProt Q9HCC0); conditions: 10 mM acetyl-CoA, 25 mM NaHCO3, 10 mM MgCl2, 10 mM ATP, pH 7.4; CT-domain acyl-CoA pocket; not the natural substrate
# T1 construct: gene MCCC2; endogenous untagged holoenzyme, native purification from Expi 293F cells on Strep-Tactin XT via covalently linked biotin (K681 of MCCα); α6β6 dodecamer; acyl-CoA site between CT-C of one β and CT-N of another β; with Methylcrotonoyl-CoA carboxylase subunit alpha, mitochondrial
# T1 sequence (Q9HCC0 23-563): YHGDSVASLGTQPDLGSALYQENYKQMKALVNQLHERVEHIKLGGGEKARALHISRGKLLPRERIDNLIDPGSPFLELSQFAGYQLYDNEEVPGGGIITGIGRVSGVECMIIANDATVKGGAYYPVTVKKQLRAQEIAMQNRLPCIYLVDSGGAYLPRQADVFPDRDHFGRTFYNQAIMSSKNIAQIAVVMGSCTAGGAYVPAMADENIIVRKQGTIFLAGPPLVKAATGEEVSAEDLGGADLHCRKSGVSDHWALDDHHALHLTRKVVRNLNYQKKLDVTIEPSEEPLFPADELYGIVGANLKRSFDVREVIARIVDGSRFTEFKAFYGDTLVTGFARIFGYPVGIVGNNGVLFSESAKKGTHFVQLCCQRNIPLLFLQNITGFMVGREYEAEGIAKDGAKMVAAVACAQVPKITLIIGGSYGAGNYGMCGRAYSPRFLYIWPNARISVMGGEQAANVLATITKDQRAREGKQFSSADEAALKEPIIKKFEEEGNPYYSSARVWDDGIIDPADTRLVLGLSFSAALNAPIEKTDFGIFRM
# T1 sequence (Q96RQ3 42-725 partner): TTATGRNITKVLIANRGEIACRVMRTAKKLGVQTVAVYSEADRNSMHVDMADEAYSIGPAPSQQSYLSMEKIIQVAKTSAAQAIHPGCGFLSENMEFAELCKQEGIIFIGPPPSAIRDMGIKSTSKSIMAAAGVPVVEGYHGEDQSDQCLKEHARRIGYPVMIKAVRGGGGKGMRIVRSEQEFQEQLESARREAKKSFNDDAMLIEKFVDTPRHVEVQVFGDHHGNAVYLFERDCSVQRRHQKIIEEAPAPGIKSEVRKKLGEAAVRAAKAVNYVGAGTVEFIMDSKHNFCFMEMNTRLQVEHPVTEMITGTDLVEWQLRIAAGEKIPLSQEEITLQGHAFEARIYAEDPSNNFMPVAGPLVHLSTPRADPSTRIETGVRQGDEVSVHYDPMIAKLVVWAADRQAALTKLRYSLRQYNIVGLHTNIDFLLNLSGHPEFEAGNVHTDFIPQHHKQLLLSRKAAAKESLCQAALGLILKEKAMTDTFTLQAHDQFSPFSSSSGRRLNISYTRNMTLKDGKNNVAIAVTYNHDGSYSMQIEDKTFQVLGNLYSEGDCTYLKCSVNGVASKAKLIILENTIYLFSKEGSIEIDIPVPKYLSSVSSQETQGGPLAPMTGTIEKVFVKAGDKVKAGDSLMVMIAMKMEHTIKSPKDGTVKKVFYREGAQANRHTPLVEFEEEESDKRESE
# human PCC holoenzyme [1] = molecular target: T2, human PCC holoenzyme (Homo sapiens, UniProt P05166); conditions: 10 mM acetyl-CoA, 25 mM NaHCO3, 10 mM MgCl2, 10 mM ATP, pH 7.4; CT-domain active site; acyl group not resolved in map
# T2 construct: gene PCCB; endogenous untagged holoenzyme, native purification from Expi 293F cells on Strep-Tactin XT via covalently linked biotin (K694 of PCCα); α6β6 dodecamer; acyl-CoA site between CT-C of one β and CT-N of another β; with Propionyl-CoA carboxylase alpha chain, mitochondrial
# T2 sequence (P05166 29-539): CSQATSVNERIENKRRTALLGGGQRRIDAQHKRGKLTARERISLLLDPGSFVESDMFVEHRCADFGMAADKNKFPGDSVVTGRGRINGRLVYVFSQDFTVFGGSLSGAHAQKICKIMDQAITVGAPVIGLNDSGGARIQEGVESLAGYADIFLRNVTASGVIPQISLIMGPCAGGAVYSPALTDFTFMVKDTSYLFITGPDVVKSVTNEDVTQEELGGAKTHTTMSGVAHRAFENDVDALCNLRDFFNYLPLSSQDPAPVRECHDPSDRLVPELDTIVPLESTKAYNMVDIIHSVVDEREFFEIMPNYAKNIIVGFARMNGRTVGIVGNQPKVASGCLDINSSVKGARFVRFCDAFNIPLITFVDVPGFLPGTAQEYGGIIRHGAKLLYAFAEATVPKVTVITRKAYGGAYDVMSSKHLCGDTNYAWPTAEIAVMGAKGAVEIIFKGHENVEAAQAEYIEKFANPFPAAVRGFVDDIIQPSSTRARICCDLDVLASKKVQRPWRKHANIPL
# T2 sequence (P05165 53-728 partner): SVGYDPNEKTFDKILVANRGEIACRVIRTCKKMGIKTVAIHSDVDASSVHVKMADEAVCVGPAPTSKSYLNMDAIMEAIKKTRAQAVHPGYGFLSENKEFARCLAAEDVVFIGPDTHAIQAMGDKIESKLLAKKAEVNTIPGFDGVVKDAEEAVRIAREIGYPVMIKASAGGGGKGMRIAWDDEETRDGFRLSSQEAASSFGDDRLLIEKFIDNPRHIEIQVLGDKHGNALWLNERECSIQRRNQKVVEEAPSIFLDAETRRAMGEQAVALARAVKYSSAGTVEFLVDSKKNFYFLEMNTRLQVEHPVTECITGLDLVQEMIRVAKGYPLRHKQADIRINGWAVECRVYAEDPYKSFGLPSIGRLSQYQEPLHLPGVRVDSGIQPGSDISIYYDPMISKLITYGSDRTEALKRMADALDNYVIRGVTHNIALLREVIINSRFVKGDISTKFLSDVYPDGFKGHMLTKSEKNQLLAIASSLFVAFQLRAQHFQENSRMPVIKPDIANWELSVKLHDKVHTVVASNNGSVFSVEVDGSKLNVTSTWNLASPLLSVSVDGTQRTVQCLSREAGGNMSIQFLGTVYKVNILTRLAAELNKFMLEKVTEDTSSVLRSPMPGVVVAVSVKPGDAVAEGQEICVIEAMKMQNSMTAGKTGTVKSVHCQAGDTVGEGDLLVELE
# human PCC holoenzyme [2] = molecular target: T2, human PCC holoenzyme; conditions: 10 mM propionyl-CoA, 25 mM NaHCO3, 10 mM MgCl2, 10 mM ATP, pH 7.4; CT-domain active site; acyl group not resolved in map
Structure (SMILES),"cryo-EM structure, 2.85 Å (human MCC holoenzyme)","cryo-EM structure, 3.38 Å (human PCC holoenzyme [1])","cryo-EM structure, 2.80 Å (human PCC holoenzyme [2])"
CC(=O)SCCNC(=O)CCNC(=O)[C@H](O)C(C)(C)COP(=O)(O)OP(=O)(O)OC[C@H]1O[C@@H](n2cnc3c(N)ncnc32)[C@H](O)[C@@H]1OP(=O)(O)O [acetyl-CoA],PCC and MCC holoenzymes in the acetyl-CoA-bound state (referred to as PCC-ACO and MCC-ACO),The acetyl-CoA in the PCC-ACO structure has a binding mode similar to the propionyl-CoA,–
CCC(=O)SCCNC(=O)CCNC(=O)[C@H](O)C(C)(C)COP(=O)(O)OP(=O)(O)OC[C@H]1O[C@@H](n2cnc3c(N)ncnc32)[C@H](O)[C@@H]1OP(=O)(O)O [propionyl-CoA],–,–,six propionyl-CoA molecules are observed binding to the six active sites of CT domains
